In patent publication US20260376293A1, “METHODS FOR STUDYING GPR158 PHARMACOLOGY AND IDENTIFICATION OF ITS LIGANDS” (UNIVERSITY OF FLORIDA RESEARCH FOUNDATION, INCORPORATED, priority 2022, published 2026) one finds glycine binding data, which are given here for one molecule.

The target in this assay is T1, GPR158 S266A mutant (Homo sapiens, UniProt Q5T848, S266A).
T1 construct: RGS7/Gβ5 co-expressed in the GAP BRET row only
T1 sequence (Q5T848 24-1215 S266A): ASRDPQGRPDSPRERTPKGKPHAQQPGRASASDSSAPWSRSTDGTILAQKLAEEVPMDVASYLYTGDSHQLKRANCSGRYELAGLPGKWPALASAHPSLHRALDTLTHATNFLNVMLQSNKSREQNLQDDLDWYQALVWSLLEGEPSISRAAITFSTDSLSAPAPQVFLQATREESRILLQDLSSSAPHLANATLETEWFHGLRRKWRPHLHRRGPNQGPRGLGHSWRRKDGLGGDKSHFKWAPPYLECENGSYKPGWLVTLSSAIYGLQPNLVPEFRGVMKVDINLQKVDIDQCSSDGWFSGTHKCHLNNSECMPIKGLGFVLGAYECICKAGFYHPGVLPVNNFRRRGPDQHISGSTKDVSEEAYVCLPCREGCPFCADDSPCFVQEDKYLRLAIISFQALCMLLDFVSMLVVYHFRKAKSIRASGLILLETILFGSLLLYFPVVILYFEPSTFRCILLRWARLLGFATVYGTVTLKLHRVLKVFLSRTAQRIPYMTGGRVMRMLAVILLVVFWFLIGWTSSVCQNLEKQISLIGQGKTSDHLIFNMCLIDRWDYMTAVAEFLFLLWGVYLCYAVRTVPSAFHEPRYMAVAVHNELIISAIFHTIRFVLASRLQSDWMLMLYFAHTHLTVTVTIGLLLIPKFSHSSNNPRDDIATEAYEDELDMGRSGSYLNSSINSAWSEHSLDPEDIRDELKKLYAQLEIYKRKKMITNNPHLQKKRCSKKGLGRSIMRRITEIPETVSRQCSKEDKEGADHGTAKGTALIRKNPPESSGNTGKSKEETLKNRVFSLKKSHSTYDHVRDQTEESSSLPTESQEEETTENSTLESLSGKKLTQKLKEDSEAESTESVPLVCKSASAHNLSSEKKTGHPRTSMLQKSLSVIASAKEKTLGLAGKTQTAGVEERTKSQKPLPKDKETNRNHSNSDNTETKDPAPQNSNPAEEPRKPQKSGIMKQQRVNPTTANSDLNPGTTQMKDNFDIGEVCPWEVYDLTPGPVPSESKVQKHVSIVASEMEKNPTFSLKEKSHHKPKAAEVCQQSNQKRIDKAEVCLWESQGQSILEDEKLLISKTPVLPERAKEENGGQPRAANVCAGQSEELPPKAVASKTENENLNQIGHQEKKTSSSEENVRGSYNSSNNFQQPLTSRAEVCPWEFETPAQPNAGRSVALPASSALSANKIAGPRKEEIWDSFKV
Description: Radioligand binding assay on GPR158 mutant S266A. The source says: FIGS. 11A-11G. Probing Cache domain of GPR158 as a ligand binding site A) Computational docking of glycine into putative ligand binding pocket on GPR158 Cache domain. Glycine and directly interacting residues are shown as sticks. Hydrogen bonds and van der Waals interactions are shown as dotted lines. B) Diagram showing interactions in the docked model of glycine against GPR158 Cache domain. Hydrogen bonds are shown as dashed lines, van der Waals interactions are shown as intersecting semicircles, and the secondary structural context of Ser266 and Tyr269 is shown as an arc. Dagger indicates a residue implicated in glycine binding in 11A. C) Radioligand binding assay of ^3H-glycine in cells expressing GPR158 mutants. Data shown mean±s.e.m. of 3 independent experiments, *p<0.05, ns=p>0.05 one-way ANOVA. D) Functional evaluation of GPR158 mutants in GAP BRET assay. Error bars are mean±s.e.m. of 3 independent experiments in triplicate. *p<0.05, **p<0.01, ***p<0.001, ****p<0.0001, ns=p>0.05, two-way ANOVA Columns with no fill (Ctrl), columns with angled-line fill (Glycine) E) Quantification of glycine inhibitory effect on kGAP normalized to the effect seen with WT receptor. […]
Whole cell binding was performed using cDNA of GPR158-venus or each GPR158-venus mutant or empty pcDNA3.1+ for ctrl cells. […] Finally radioactivity was measured using the liquid scintillation analyzer Tri-Carb 4910 TR.

For `NCC(=O)O` [glycine], the glycine binding entry is listed as “normally bind glycine”.
